The values that follow come from ChEMBL document CHEMBL5465560, “Selectivity Literature for EUbOPEN Chemogenomic Library” (2024).

Numbering of substitutions follows the chain as printed.

Holding throughout (settings): at 1 µM
Test [1] has as its system T1, Receptor-type tyrosine-protein kinase FLT3 (Homo sapiens), P36888 [D835Y].
T1 sequence (whole entry): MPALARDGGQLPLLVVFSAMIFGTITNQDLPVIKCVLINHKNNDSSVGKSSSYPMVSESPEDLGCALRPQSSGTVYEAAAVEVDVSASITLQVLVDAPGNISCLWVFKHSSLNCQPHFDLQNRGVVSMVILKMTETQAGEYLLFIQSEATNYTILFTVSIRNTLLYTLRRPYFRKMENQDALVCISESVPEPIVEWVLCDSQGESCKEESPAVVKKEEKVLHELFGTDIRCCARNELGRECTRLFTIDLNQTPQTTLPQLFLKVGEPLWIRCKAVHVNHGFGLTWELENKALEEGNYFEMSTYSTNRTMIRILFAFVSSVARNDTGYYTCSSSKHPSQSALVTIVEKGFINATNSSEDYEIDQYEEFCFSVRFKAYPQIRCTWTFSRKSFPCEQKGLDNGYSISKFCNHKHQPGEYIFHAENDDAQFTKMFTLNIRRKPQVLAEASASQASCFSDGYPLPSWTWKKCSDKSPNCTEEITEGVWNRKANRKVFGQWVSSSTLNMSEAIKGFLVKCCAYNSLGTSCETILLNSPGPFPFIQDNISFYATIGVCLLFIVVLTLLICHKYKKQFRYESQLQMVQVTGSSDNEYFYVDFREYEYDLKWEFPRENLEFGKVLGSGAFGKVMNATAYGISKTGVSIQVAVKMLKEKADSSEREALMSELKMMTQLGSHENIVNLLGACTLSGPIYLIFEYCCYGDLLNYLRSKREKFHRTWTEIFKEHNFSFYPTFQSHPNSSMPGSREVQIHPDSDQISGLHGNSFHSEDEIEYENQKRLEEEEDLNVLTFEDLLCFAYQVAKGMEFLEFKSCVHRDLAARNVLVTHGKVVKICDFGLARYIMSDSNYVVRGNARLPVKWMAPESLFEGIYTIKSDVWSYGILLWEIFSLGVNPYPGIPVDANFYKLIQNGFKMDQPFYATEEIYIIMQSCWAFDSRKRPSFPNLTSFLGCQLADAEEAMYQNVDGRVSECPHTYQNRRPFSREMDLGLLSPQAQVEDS
The test can be described thus: (§1) Selectivity interaction (KinomeScan (DiscoverX)) EUB0001049a FLT3.

Test [2] deals with T2, Receptor-type tyrosine-protein kinase FLT3 (Homo sapiens), P36888 [R834Q].
T2 sequence (whole entry): T1 sequence (whole entry) with R834Q, Y835D
The test is described as §1.

Test [3] concerns T3, Receptor-type tyrosine-protein kinase FLT3 (Homo sapiens), P36888 [K663Q].
T3 sequence (whole entry): T1 sequence (whole entry) with K663Q, Y835D
Described as §1.

Turning to `COc1cc(Nc2nc(C)cc(-c3cnn4nc(OC)ccc34)n2)cc(C(F)(F)F)c1`, the % of control came out at 79% in test [1], 100% in test [2] and 78% in test [3].
